The values that follow come from paper PMC10252614 (International Journal of Molecular Sciences, 2023).

For one data set, the target named is T1, human BChE (hBChE) (Homo sapiens, UniProt P06276).
T1 construct: made in house
T1 sequence (P06276 29-602): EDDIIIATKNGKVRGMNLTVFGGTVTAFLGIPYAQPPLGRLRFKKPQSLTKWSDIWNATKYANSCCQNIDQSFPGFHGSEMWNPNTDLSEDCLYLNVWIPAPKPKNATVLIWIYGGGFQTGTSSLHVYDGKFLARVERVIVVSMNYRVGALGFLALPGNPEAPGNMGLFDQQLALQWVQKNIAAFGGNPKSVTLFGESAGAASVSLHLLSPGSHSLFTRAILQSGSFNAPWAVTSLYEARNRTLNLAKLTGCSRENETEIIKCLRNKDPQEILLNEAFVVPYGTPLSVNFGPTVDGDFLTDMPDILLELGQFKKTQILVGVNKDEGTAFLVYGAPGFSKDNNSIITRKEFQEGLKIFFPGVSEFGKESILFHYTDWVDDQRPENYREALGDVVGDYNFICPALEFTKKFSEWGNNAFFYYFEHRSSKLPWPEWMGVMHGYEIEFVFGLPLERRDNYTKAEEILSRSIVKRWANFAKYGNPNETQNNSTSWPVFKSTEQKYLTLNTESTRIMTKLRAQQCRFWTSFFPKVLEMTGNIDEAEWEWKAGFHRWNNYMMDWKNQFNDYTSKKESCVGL
The data set can be described thus: hBChE inhibition, modified Ellman's method. Format: biochemical. The conditions noted are these: 10^-6 M. As for the experimental part:
N-Methylpropargylamine-quinazolines were tested for their inhibitory potency against human AChE (hAChE) and human BChE (hBChE) enzymes using the modified spectrophotometric method of Ellman et al..
The human recombinant BChE and AChE were prepared at the Department of Toxicology and Military Pharmacy (Faculty of Military Health Sciences, Hradec Kralove, Czech Republic). 5,5′-dithiobis(2-nitrobenzoic acid) (Ellman’s reagent, DTNB), phosphate buffer (PB, pH 7.4), acetylthiocholine (ATC) and butyrylthiocholine (BTC), were purchased from Sigma-Aldrich, Prague, Czech Republic. For measuring purposes, polystyrene Nunc 96-well microplates with a flat-bottom shape (ThermoFisher Scientific, Waltham, MA, USA) were utilized. All the assays were carried out in 0.1 M KH2PO4/K2HPO4 buffer, pH 7.4. Enzyme solutions were prepared at 2.0 units/mL in 2 mL aliquots. The assay medium consisted of a 0.1 M phosphate buffer (pH 7.4), 0.01 M DTNB, the enzyme, and 0.01 M substrate (ATC/BTC iodide solution). Concentration 1 µM was tested and the % of inhibition was calculated. Tested compounds were pre-incubated for 5 min. The reaction was started by immediate addition of 20 μL of the substrate. […] Each concentration was assayed in triplicate. Software GraphPad Prism 5 (San Diego, CA, USA) was used for the statistical data evaluation.
Background: In Ellman's method for cholinesterases, released thiocholine reacts with DTNB.
`C#CCN(C)c1nc(NC2CCCCC2)c2ccc(Cl)cc2n1` [II-6h, 7-chloro-N4-cyclohexyl-N2-methyl-N2-(prop-2-yn-1-yl)quinazoline-2,4-diamine] had an inhibition at 1 µM of 3%.

As for `C#CCN(C)c1nc(NC2CCCCC2)c2ccccc2n1` [I-6h, N4-cyclohexyl-N2-methyl-N2-(prop-2-yn-1-yl)quinazoline-2,4-diamine], the inhibition at 1 µM came to 0%.

`C#CCN(C)c1nc(N)c2cc(OC)ccc2n1` [III-6a, 6-methoxy-N2-methyl-N2-(prop-2-yn-1-yl)quinazoline-2,4-diamine] displayed an inhibition at 1 µM of 1%.

The compound `C#CCN(C)c1nc(NCCCC)c2ccccc2n1` [I-6e, N4-butyl-N2-methyl-N2-(prop-2-yn-1-yl)quinazoline-2,4-diamine] gave an inhibition at 1 µM of 4%.

Tested on in a further data set: not listed separately
The data set can be described thus: in vitro. The note with it: human, undifferentiated SH-SY5Y cells.
The term IC50 denotes the midpoint of a concentration-inhibition curve. Higher therefore signals weaker potency in that assay. For the compound `C#CCN(C)c1nc(NC2CCCCC2)c2ccc(Cl)cc2n1` [II-6h, 7-chloro-N4-cyclohexyl-N2-methyl-N2-(prop-2-yn-1-yl)quinazoline-2,4-diamine], the IC50 at 24 h was 35 ± 1.53 µM.

For the compound `C#CCN(C)c1nc(NC2CCCCC2)c2ccccc2n1` [I-6h, N4-cyclohexyl-N2-methyl-N2-(prop-2-yn-1-yl)quinazoline-2,4-diamine], inhibition was half-maximal at 53.2 ± 3.03 µM (IC50 at 24 h).

In turn, `C#CCN(C)c1nc(N)c2cc(OC)ccc2n1` [III-6a, 6-methoxy-N2-methyl-N2-(prop-2-yn-1-yl)quinazoline-2,4-diamine] displayed an IC50 at 24 h of 38.6 ± 0.82 µM.

For `C#CCN(C)c1nc(NCCCC)c2ccccc2n1` [I-6e, N4-butyl-N2-methyl-N2-(prop-2-yn-1-yl)quinazoline-2,4-diamine], the midpoint of inhibition, the IC50 at 24 h, lay at 67.95 ± 0.22 µM.

The target of a further data set is T2, GluN1/GluN2B receptor (Homo sapiens, UniProt Q05586+Q13224).
T2 construct: expressed in transfected cells; host or cells: HEK293
T2 sequence (Q13224 27-1484, other chains not shown): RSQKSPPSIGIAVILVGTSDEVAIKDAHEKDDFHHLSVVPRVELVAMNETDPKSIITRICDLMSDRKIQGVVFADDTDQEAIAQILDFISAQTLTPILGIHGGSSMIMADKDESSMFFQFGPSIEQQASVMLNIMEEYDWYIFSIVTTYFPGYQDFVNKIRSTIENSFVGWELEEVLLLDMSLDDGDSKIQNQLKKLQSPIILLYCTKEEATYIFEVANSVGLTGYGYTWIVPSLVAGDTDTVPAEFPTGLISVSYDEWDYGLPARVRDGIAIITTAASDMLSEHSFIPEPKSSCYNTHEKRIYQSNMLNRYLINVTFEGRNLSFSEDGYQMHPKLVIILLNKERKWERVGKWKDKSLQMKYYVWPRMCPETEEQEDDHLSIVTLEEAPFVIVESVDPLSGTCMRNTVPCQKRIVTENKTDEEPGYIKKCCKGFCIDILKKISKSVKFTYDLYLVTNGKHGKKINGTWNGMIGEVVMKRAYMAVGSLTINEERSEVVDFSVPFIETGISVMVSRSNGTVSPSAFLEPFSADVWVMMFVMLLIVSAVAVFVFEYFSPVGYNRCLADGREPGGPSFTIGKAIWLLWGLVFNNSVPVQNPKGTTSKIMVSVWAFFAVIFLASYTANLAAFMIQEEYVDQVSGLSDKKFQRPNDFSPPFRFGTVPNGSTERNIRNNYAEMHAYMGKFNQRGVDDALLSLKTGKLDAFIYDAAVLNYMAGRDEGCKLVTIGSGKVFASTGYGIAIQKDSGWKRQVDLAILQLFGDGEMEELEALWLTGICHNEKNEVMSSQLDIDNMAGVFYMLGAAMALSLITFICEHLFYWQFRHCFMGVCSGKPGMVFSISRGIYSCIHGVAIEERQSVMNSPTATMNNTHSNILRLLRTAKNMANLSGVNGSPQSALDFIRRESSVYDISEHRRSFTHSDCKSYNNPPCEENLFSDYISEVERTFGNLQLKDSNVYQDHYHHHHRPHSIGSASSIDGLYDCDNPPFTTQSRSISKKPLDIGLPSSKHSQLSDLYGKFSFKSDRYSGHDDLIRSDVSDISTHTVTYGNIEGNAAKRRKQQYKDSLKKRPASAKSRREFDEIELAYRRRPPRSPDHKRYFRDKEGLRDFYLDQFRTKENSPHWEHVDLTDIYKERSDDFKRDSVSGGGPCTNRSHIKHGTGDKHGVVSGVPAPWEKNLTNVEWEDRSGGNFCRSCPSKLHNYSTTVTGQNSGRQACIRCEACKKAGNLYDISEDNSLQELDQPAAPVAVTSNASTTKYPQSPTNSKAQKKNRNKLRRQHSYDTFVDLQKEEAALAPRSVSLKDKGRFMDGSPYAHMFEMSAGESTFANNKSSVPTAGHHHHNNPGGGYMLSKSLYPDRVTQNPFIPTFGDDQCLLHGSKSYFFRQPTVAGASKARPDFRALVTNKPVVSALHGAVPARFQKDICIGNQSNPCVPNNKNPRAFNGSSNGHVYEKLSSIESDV
Put plainly: whole-cell patch-clamp on HEK293 cells expressing GluN1/GluN2B NMDAR. The note with it: HEK293, 10 µM, −60 mV, ± SEM (n = 5–6), 100% = full inhibition; read-out: Relative inhibition (RI) of GluN1/GluN2B NMDAR. Format: cell-based. As for the experimental part: We tested the derivatives by the whole-cell patch-clamp method at a concentration of 10 μM under steady-state conditions in the presence of the saturating concentrations of NMDAR (co-)agonists (L-glutamate and glycine). […] Whole-cell patch-clamp recordings were performed using an Axopatch 200B amplifier (Molecular Devices, LLC., San Jose, CA, USA) at a holding membrane potential of −60 mV. HEK293 cells were co-transfected with DNA vectors encoding human versions of the GluN1-4a (GluN1) and GluN2B subunits and green fluorescent protein (GFP) in a 1:1:1 ratio using 0.9 μL PolyMag reagent (OZ Biosciences SAS, Marseille, France) in 50 μL Opti-MEM I [56, 57]. After 15 min on a magnetic plate, HEK293 cells were trypsinized and resuspended in Opti-MEM I medium containing 1% FBS, 2 mM MgCl2 and 3 mM kynurenic acid (to reduce cell death caused by activation of NMDARs). Electrophysiological measurements were performed 24–48 h after completion of transfection at room temperature. The extracellular recording solution (ECS) contained (in mM): 160 NaCl, 2.5 KCl, 10 HEPES, 10 D-glucose, 0.2 EDTA, and 0.7 CaCl2 (pH 7.3 with NaOH). […] A microprocessor-controlled rapid perfusion system with a time constant for solution exchange around the recorded cell of ~20 ms was used. Currents were low-pass filtered at 2 kHz using an eight-pole Bessel filter, digitized at 5 kHz, and recorded using the pCLAMP 10 program (Molecular Devices, LLC., San Jose, CA, USA). The co-agonist glycine (100 µM) was applied throughout the recording, and the agonist L-glutamate (1 mM) was used to elicit responses of GluN1/GluN2B receptors.
A general note: The patch-clamp technique gives a direct electrical read-out from membranes.
Regarding `C#CCN(C)c1nc(NC2CCCCC2)c2ccc(Cl)cc2n1` [II-6h, 7-chloro-N4-cyclohexyl-N2-methyl-N2-(prop-2-yn-1-yl)quinazoline-2,4-diamine], the inhibition at 10 µM was 63.5 ± 3.46%.

Consider `C#CCN(C)c1nc(NC2CCCCC2)c2ccccc2n1` [I-6h, N4-cyclohexyl-N2-methyl-N2-(prop-2-yn-1-yl)quinazoline-2,4-diamine], for which the inhibition at 10 µM amounted to 49.3 ± 1.16%.

With `C#CCN(C)c1nc(N)c2cc(OC)ccc2n1` [III-6a, 6-methoxy-N2-methyl-N2-(prop-2-yn-1-yl)quinazoline-2,4-diamine], the inhibition at 10 µM worked out at 18.1 ± 5.75%.

`C#CCN(C)c1nc(NCCCC)c2ccccc2n1` [I-6e, N4-butyl-N2-methyl-N2-(prop-2-yn-1-yl)quinazoline-2,4-diamine]: the inhibition at 10 µM is 30.1 ± 3.13%.

A further data set has as its system SH-SY5Y cells. The data set can be described thus: glutathione levels, monochlorobimane assay. The class given is cell-based, human. The note with it: 10 µM, 24 h. The method, then: Next, we tested the effects of the compounds on intracellular dehydrogenase activity and glutathione levels. […] To evaluate the effects of the compounds on cells, we measured total intracellular dehydrogenase activity as a marker of cellular viability and glutathione levels for evaluation of oxidative stress (Table 6).
The glutathione (GSH) levels were measured using an optimized monochlorobimane assay. The working solutions of monochlorobimane (MCB, Merck, Rahway, NJ, USA) were prepared fresh at the time of analysis by dilution in Dulbecco’s phosphate buffer (PBS; pH 7; 1 µM, Merck, USA) and tempered at 37 °C for 30 min. After the treatment of cells with I-6e (100 µM), I-6h (100 µM), II-6e (100 µM), II-6h (10–100 µM) and III-6a (10–100 µM), 20 μL of the MCB solution was added to the cells in 96-well microplates and the measurement started immediately (final concentration of MCB in a well was 40 μmol/L) The fluorescence intensity (Ex/Em = 394/490 nm) was measured kinetically for 20 min using SPARK microplate reader (Tecan, Austria). The fluorescence was expressed as the slope of a fluorescence change over time. The GSH levels were expressed as the percentage relative to the GSH levels in control cells (control = 100%).
Consider `C#CCN(C)c1nc(NC2CCCCC2)c2ccc(Cl)cc2n1` [II-6h, 7-chloro-N4-cyclohexyl-N2-methyl-N2-(prop-2-yn-1-yl)quinazoline-2,4-diamine], for which the “change in glutathione levels (in words)” value is listed as “no significant changes”.

Regarding `C#CCN(C)c1nc(N)c2cc(OC)ccc2n1` [III-6a, 6-methoxy-N2-methyl-N2-(prop-2-yn-1-yl)quinazoline-2,4-diamine], the “change in glutathione levels (in words)” value is on record as “no significant changes”.

The target in the next data set is T3, hMAO-A (Homo sapiens, UniProt P21397).
T3 construct: purchased Merck (Prague, Czech Republic)
T3 sequence (P21397 1-527): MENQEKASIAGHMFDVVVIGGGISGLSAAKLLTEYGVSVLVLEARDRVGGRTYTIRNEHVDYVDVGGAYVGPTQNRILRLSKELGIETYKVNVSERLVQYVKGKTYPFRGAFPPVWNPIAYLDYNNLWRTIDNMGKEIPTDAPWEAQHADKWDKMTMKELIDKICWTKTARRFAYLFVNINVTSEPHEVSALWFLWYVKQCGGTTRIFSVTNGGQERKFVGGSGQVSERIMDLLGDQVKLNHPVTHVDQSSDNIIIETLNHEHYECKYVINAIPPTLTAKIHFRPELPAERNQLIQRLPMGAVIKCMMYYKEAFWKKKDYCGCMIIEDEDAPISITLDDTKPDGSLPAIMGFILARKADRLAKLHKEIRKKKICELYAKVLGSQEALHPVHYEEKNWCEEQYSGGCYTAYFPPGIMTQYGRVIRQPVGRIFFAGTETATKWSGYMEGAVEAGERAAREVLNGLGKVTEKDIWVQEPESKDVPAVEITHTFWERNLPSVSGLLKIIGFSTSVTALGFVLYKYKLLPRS
The data set can be described thus: in vitro inhibition of hMAO-A, kynuramine fluorescence assay.
Details: not given
Format: biochemical. The method, then:
The hMAO-A and hMAO-B enzymes were purchased from Merck (Prague, Czech Republic). […] The mixture was pre-incubated at 37 °C for 15 min and subsequently substrate kynuramine was added to the final concentration of 100 µM. The final volume of reaction mixture was 0.1 mL. The whole reaction mixture was incubated at 37 °C for 30 min. The reaction was stopped by the addition of 20 µL 4M NaOH.
In turn, `C#CCN(C)c1nc(NC2CCCCC2)c2ccccc2n1` [I-6h, N4-cyclohexyl-N2-methyl-N2-(prop-2-yn-1-yl)quinazoline-2,4-diamine] came in with an IC50 of 0.9 ± 0.17 µM.

Take `C#CCN(C)c1nc(N)c2cc(OC)ccc2n1` [III-6a, 6-methoxy-N2-methyl-N2-(prop-2-yn-1-yl)quinazoline-2,4-diamine]: half-maximal inhibition (IC50) required 0.62 ± 0.04 µM.

Turning to `C#CCN(C)c1nc(NCCCC)c2ccccc2n1` [I-6e, N4-butyl-N2-methyl-N2-(prop-2-yn-1-yl)quinazoline-2,4-diamine], the midpoint of inhibition, the IC50, lay at 2.6 ± 0.23 µM.
